Assay results as given in patent US20040127411A1, “Methods for treating lung cancer using insulin-like growth factor binding protein-3” (Insmed, Inc., priority 2002, published 2004).
Read-outs that look alike come from different tables or passages of the source. Marks after values point to notes of the source that are not given here.

Experiments:
3LL Lewis lung tumor = assay: Treatment of 3LL murine Lewis lung tumors in C57BL6 mice; format: in vivo; conditions: for Mean Tumor Volume: day 23, mean ± SEM
Description: Female C57BL6 mice (8 animals per group) received bilateral SC implants of 3LL Lewis lung tumor fragments on day 0 and were treated subcutaneously with vehicle, rhIGFBP-3 (3 or 10 mg/kg twice daily×21), carboplatin (25 or 50 mg/kg; IP; single dose) or a combination of agents beginning on day 2.

[1] = tested on: LoVo colorectal carcinoma xenografts; assay: Treatment of LoVo human colorectal carcinoma xenografts with rhIGFBP-3 and irinotecan in balb/c nu/nu mice; format: in vivo; conditions: for effect after discontinuation of treatment: treatment discontinued day 21, monitored to day 40
Description: Female balb/c nu/nu mice (8 animals per group) received bilateral SC implants of LoVo colorectal carcinoma fragments which were allowed to grow to volumes of 100-150 mm3 prior to initiation of treatment. Upon establishment of the tumors, mice were treated with vehicle, rhIGFBP-3 (3, 10 or 30 mg/kg twice daily; SC x 21), irinotecan (10 or 20 mg/kg; IP; 4 doses at 4 day intervals) or a combination of agents. All treatment was discontinued on day 21 and mice were monitored for tumor response out to day 40. Net tumor growth was calculated at each time point.

[2] = tested on: MCF-7 breast tumor xenografts; assay: Treatment of established MCF-7 human breast tumors with rhIGFBP-3 and paclitaxel in balb/c nu/nu mice; format: in vivo
Description: Female balb/c nu/nu mice (8 animals per group) received bilateral SC implants of MCF-7 breast tumor fragments which were allowed to grow to volumes of 100-150 mm^3 prior to initiation of treatment. Upon establishment of the tumors, mice were treated with vehicle, rhIGFBP-3 (3, 10 or 30 mg/kg twice daily; SC×21), paclitaxel (10 or 20 mg/kg; IP; daily for 5 days) or a combination of agents. Tumors were measured twice weekly for 3 weeks and net tumor growth was calculated at each time point.

BT474/HerR = assay: Growth inhibition (MTT assay), BT474/HerR; format: cell-based, human
[3] = rat, in vivo, iv
Description: (§1) The purpose of this study was to characterize the pharmacokinetic profile of rhIGFBP-3 following a single IV administration to rats. Adult male Sprague-Dawley rats (N=3/group) were administered doses of 0.8-160 mg/kg rhIGFBP-3 and blood specimens were collected for drug measurement.

[4] = tested on: MCF-7 human breast xenografts; assay: Early treatment of MCF-7 human breast xenografts in CD1 nu/nu mice; format: in vivo
Description: Female CD1 nu/nu mice (12 animals per group) received SC implants of 5×10^6 MCF-7 cells. On the same day, mice received either vehicle or rhIGFBP-3 IP at a dose of 20 mg/kg. Mice were then treated with either vehicle or rhIGFBP-3 (20 mg/kg twice daily) for 10 weeks. Tumor volume was monitored beginning on week 2 and measured 3 times thereafter. […] In addition, the 3 tumors that did arise in the rhIGFBP-3 group were smaller than those in the control group.

[5] = tested on: MCF-7 human breast cancer cells; assay: MCF-7 cell proliferation (MTT) with increasing rhIGFBP-3; format: cell-based; conditions: 5% FBS, 4 days, increasing concentrations
Description: FIG. 5(A) depicts the MCF-7 breast cancer cell proliferation as assayed by MTT in increasing concentrations of rhIGFBP-3.
The purpose of this study was to evaluate the effects of rhIGFBP-3 alone and in combination with radiation therapy in MCF-7 human breast cancer cells. MCF-7 cells were plated and cultured in 5% FBS for 4 days with increasing concentrations of rhIGFBP-3 in the media.

SKBR3/IGF-IR = assay: Growth inhibition (MTT assay), SKBR3/IGF-IR; format: cell-based, human
[6] = Pharmacokinetics of rhIGFBP-3 after single IV administration to rats; conditions: for AUC / Cmax: mean ± SD
Description: as §1

MCF-7/HER2-18 = assay: Growth inhibition (MTT assay), MCF-7/HER2-18; format: cell-based, human
BT474 = assay: Growth inhibition (MTT assay), BT474; format: cell-based, human
SKBR3 = assay: Growth inhibition (MTT assay), SKBR3; format: cell-based, human
[7] = Pharmacokinetics of rhIGFBP-3 after single SC injection in rats; format: in vivo
Description: The purpose of this study was to characterize the pharmacokinetic profile of rhIGFBP-3 following a single SC administration to rats. Adult male rats (N=5/group) were administered doses of 3-30 mg/kg rhIGFBP-3 by bolus SC injection and blood specimens were collected for drug concentration analysis.

[8] = tested on: MCF-7 human breast cancer cells; conditions: for cell survival: 1 μg/mL, day 12
Description: In a second experiment, MCF-7 cells were exposed to increasing doses of irradiation and rhIGFBP-3 24 hours after plating. Cell survival was determined on day 12.

[9] = 20 mg/kg twice daily, after 10 weeks, mean ± SD
[10] = IV, 8.0 mg/kg vs 0.8 mg/kg (ten fold increase in dose)

Compound: N.N.O=C([O-])C1(C(=O)[O-])CCC1.[Pt+2] [Carboplatin, carboplatin, reference compound]
- Mean Tumor Volume (3LL Lewis lung tumor; 25 mg/kg IP single dose): 144.92 ± 31.36* mm^3
- Mean Tumor Volume (3LL Lewis lung tumor; 50 mg/kg IP single dose): 187.36 ± 37.42* mm^3

Compound: CCc1c2c(nc3ccc(OC(=O)N4CCC(N5CCCCC5)CC4)cc13)-c1cc3c(c(=O)n1C2)COC(=O)[C@]3(O)CC [irinotecan, reference compound]
- effect after discontinuation of treatment [1]: persisting effect

Compound: rhIGFBP-3: recombinant human insulin-like growth factor binding protein-3; preferred form from E. coli, native human sequence, lacks glycosylation
- net tumor growth, single agent ([2]; 3, 10 or 30 mg/kg twice daily SC x21): did not inhibit net tumor growth
- effect in combination with paclitaxel ([2]; maximum effect at 10 mg/kg rhIGFBP-3 and 20 mg/kg paclitaxel): enhanced the effect of paclitaxel
- Growth Inhibition (MTT Assay) (BT474/HerR; 0.1-100 μg/ml): 10-26%
- effect when combined with Herceptin, in words (BT474/HerR; combined with Herceptin): strong dose-dependent increase in Herceptin sensitivity
- growth inhibition in words, single agent (BT474/HerR; single agent): less pronounced effect
- CL/W ([3]; 0.8 mg/kg): 7.07 ± 3.12 mL/min/kg
- CL/W ([3]; 8 mg/kg): 13.4 ± 1.62 mL/min/kg
- CL/W ([3]; 80 mg/kg): 6.33 ± 1.07 mL/min/kg
- CL/W ([3]; 160 mg/kg): 9.65 ± 2.42 mL/min/kg
- Number of Mice with Tumors ([4]; 20 mg/kg twice daily IP, after 10 weeks): 3/12
- MCF-7 tumor establishment compared to control ([4]; 20 mg/kg twice daily for 10 weeks): prevented MCF-7 tumor establishment
- Mean Tumor Volume [4, 9]: 37.7 ± 42.0 mm^3
- Mean Tumor Weight [4, 9]: 0.046 ± 0.047 g
- tumor volume compared to control, all mice in each group ([4]; end of treatment, p≦0.05): significantly lower
- maximum growth suppression compared to control [5]: 50%
- Mean Tumor Volume (3LL Lewis lung tumor; 3 mg/kg twice daily SC x21): 289.00 ± 42.97 mm^3
- reduction in tumor volume compared with carboplatin (3LL Lewis lung tumor; 10 mg/kg twice daily): equal to that observed with the standard chemotherapeutic agent carboplatin
- Mean Tumor Volume (3LL Lewis lung tumor; 10 mg/kg twice daily SC x21): 149.73 ± 25.34* mm^3
- 3LL Lewis lung tumor growth, single agent (3LL Lewis lung tumor; 3 or 10 mg/kg twice daily SC): dose-dependently inhibited
- effect in combination with carboplatin (3LL Lewis lung tumor; rhIGFBP-3 3 or 10 mg/kg twice daily + carboplatin 25 or 50 mg/kg IP): did not potentiate the effects of carboplatin
- Growth Inhibition (MTT Assay) (SKBR3/IGF-IR; 0.1-100 μg/ml): 12-40%
- effect when combined with Herceptin, in words (SKBR3/IGF-IR; combined with Herceptin): strong dose-dependent increase in Herceptin sensitivity
- growth inhibition in words, single agent (SKBR3/IGF-IR; single agent): marked dose-dependent growth inhibition
- drug concentration in the serum ([6]; IV 0.8 mg/kg, four hours after administration, below quantitative limitation of the assay): < 300 ng/mL
- AUC ([6]; IV, 0.8 mg/kg): 2172 ± 999 ng·h/mL
- Cmax ([6]; IV, 0.8 mg/kg): 3067 ± 551 ng/mL
- fold increase in AUC [6, 10]: 4.6 fold
- fold increase in Cmax [6, 10]: 1.6 fold
- AUC ([6]; IV, 8.0 mg/kg): 10057 ± 1248 ng·h/mL
- Cmax ([6]; IV, 8.0 mg/kg): 4967 ± 1159 ng/mL
- AUC ([6]; IV, 80 mg/kg): 215060 ± 39102 ng·h/mL
- AUC ([6]; IV, 160 mg/kg): 287575 ± 64180 ng·h/mL
- Cmax ([6]; IV, 160 mg/kg): 476667 ± 122202 ng/mL
- drug serum concentrations 8 hours after dosing ([6]; IV, all dose groups other than 0.8 mg/kg): detectable
- Cmax ([6]; IV): 360333 ± 62772 ng/mL
- adverse clinical signs ([6]; single IV, any dose tested (0.8-160 mg/kg)): no adverse clinical signs
- Growth Inhibition (MTT Assay) (MCF-7/HER2-18; 0.1-100 μg/ml): 15-55%
- effect when combined with Herceptin, in words (MCF-7/HER2-18; combined with Herceptin, compared to rhIGFBP-3 alone): marginal dose-dependent increase in growth inhibition
- growth inhibition in words, single agent (MCF-7/HER2-18; single agent): marked dose-dependent growth inhibition
- Growth Inhibition (MTT Assay) (BT474; 0.1-100 μg/ml): 10-20%
- effect when combined with Herceptin, in words (BT474; combined with Herceptin): did not significantly enhance Herceptin sensitivity
- Growth Inhibition (MTT Assay) (SKBR3; 0.1-100 μg/ml): 20-40%
- effect when combined with Herceptin, in words (SKBR3; combined with Herceptin): modest effect
- net tumor growth, combination with irinotecan ([1]; 30 mg/kg rhIGFBP-3 + 10 mg/kg irinotecan): optimal results
- inhibition of net tumor growth, single agent, vs 10 mg/kg irinotecan ([1]; 30 mg/kg twice daily SC x21): equally effective
- effect after discontinuation of treatment [1]: persisting effect
- absorption following SC administration ([7]; SC): readily absorbed into the circulation
- AUC ([7]; SC, 3 mg/kg): 5347 ± 909 ng·h/mL
- CL/W ([7]; SC, 3 mg/kg): 9.63 ± 2.03 mL/min/kg
- Cmax ([7]; SC, 3 mg/kg): 751 ± 120 ng/mL
- AUC ([7]; SC, 10 mg/kg): 12999 ± 933 ng·h/mL
- CL/W ([7]; SC, 10 mg/kg): 12.9 ± 1 mL/min/kg
- Cmax ([7]; SC, 10 mg/kg): 2255 ± 217 ng/mL
- increase in AUC compared to the 3 mg/kg group ([7]; SC, 10 mg/kg): approximately 2.5 fold
- AUC ([7]; SC, 30 mg/kg): 54476 ± 7517 ng·h/mL
- CL/W ([7]; SC, 30 mg/kg): 9.33 ± 1.42 mL/min/kg
- Cmax ([7]; SC, 30 mg/kg): 6924 ± 1021 ng/mL
- increase in AUC compared to the 3 mg/kg group ([7]; SC, 30 mg/kg): ~10 fold
- signs of toxicity ([7]; single SC, 3-30 mg/kg): No signs of toxicity
- cell survival ([8]; 0 Gy): ~65%
- cell survival ([8]; 2 Gy): 37%
- cell survival ([8]; 4 Gy): 21%
- cell survival ([8]; 6 Gy): 5%
- effect on radiation-induced cell death ([8]; all radiation doses): accentuated this effect on cell death at all doses
